In PubChem BioAssay (NCI):
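Exposure lasted 48 hours, with cells grown in 96-well plates and compounds tested at five concentrations. GI50: concentration for 50% inhibition of growth. TGI: concentration producing complete growth inhibition.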

Experiments:
Test in all cases: growth of human tumour cells (NCI), 48 h
T-47D breast = system: T-47D breast
MCF7 breast = system: MCF7 breast
UACC-62 melanoma = system: UACC-62 melanoma
ACHN renal = system: ACHN renal
MDA-MB-435 = system: MDA-MB-435
K-562 leukemia = system: K-562 leukemia
HOP-62 NSCLC = system: HOP-62 NSCLC
SK-MEL-28 melanoma = system: SK-MEL-28 melanoma
786-0 renal = system: 786-0 renal
RXF 393 renal = system: RXF 393 renal
HCC-2998 colon = system: HCC-2998 colon
U251 CNS = system: U251 CNS
SK-OV-3 ovarian = system: SK-OV-3 ovarian
PC-3 prostate = system: PC-3 prostate
NCI-H226 lung = system: NCI-H226 lung
LOX IMVI melanoma = system: LOX IMVI melanoma
BT-549 breast = system: BT-549 breast
UO-31 renal = system: UO-31 renal
TK-10 renal = system: TK-10 renal
OVCAR-4 ovarian = system: OVCAR-4 ovarian
EKVX NSCLC = system: EKVX NSCLC
NCI-H522 lung = system: NCI-H522 lung
KM12 colon = system: KM12 colon
SF-539 CNS = system: SF-539 CNS
HOP-92 NSCLC = system: HOP-92 NSCLC
HCT-15 colon = system: HCT-15 colon
COLO 205 colon = system: COLO 205 colon
IGROV1 ovarian = system: IGROV1 ovarian
SK-MEL-5 melanoma = system: SK-MEL-5 melanoma
DU-145 prostate = system: DU-145 prostate
HCT-116 colon = system: HCT-116 colon
SF-295 CNS = system: SF-295 CNS
OVCAR-3 ovarian = system: OVCAR-3 ovarian
A498 renal = system: A498 renal
SNB-19 CNS = system: SNB-19 CNS
SF-268 CNS = system: SF-268 CNS
OVCAR-8 ovarian = system: OVCAR-8 ovarian
M14 melanoma = system: M14 melanoma
SK-MEL-2 melanoma = system: SK-MEL-2 melanoma

C#CC(=O)Nc1cccc(Nc2nc3c(c(NCc4ccccc4)n2)CCCC3)c1
GI50 (T-47D breast): 964 nM
TGI (T-47D breast): 3700 nM
GI50 (MCF7 breast): 296 nM
TGI (MCF7 breast): 1810 nM
GI50 (UACC-62 melanoma): 85.1 nM
TGI (UACC-62 melanoma): 279 nM
GI50 (ACHN renal): < 11.3 nM
TGI (ACHN renal): < 31.7 nM
GI50 (MDA-MB-435): 1020 nM
TGI (MDA-MB-435): 2240 nM
GI50 (K-562 leukemia): 1390 nM
TGI (K-562 leukemia): 5960 nM
GI50 (HOP-62 NSCLC): 61.2 nM
TGI (HOP-62 NSCLC): 435 nM
GI50 (SK-MEL-28 melanoma): 1490 nM
TGI (SK-MEL-28 melanoma): 2970 nM
GI50 (786-0 renal): < 10 nM
TGI (786-0 renal): < 10 nM
GI50 (RXF 393 renal): 38.9 nM
TGI (RXF 393 renal): 239 nM
GI50 (HCC-2998 colon): 1360 nM
TGI (HCC-2998 colon): 2900 nM
GI50 (U251 CNS): 20.8 nM
TGI (U251 CNS): 77.6 nM
GI50 (SK-OV-3 ovarian): 336 nM
TGI (SK-OV-3 ovarian): 793 nM
GI50 (PC-3 prostate): < 10 nM
TGI (PC-3 prostate): 34.4 nM
GI50 (NCI-H226 lung): 147 nM
TGI (NCI-H226 lung): 551 nM
GI50 (LOX IMVI melanoma): < 10 nM
TGI (LOX IMVI melanoma): < 10 nM
GI50 (BT-549 breast): 26.6 nM
TGI (BT-549 breast): 77.6 nM
GI50 (UO-31 renal): < 10 nM
TGI (UO-31 renal): < 10 nM
GI50 (TK-10 renal): 1490 nM
TGI (TK-10 renal): 2850 nM
GI50 (OVCAR-4 ovarian): 291 nM
TGI (OVCAR-4 ovarian): 1020 nM
GI50 (EKVX NSCLC): 340 nM
TGI (EKVX NSCLC): 1990 nM
GI50 (NCI-H522 lung): < 10 nM
TGI (NCI-H522 lung): < 10 nM
GI50 (KM12 colon): 22.5 nM
TGI (KM12 colon): 337 nM
GI50 (SF-539 CNS): < 10 nM
TGI (SF-539 CNS): < 10 nM
GI50 (HOP-92 NSCLC): < 10 nM
TGI (HOP-92 NSCLC): < 10 nM
GI50 (HCT-15 colon): 231 nM
TGI (HCT-15 colon): 1140 nM
GI50 (COLO 205 colon): 401 nM
TGI (COLO 205 colon): 1140 nM
GI50 (IGROV1 ovarian): < 10 nM
TGI (IGROV1 ovarian): 59.8 nM
GI50 (SK-MEL-5 melanoma): 1120 nM
TGI (SK-MEL-5 melanoma): 2440 nM
GI50 (DU-145 prostate): 446 nM
TGI (DU-145 prostate): 1950 nM
GI50 (HCT-116 colon): 120 nM
TGI (HCT-116 colon): 291 nM
GI50 (SF-295 CNS): 15.2 nM
TGI (SF-295 CNS): 36.1 nM
GI50 (OVCAR-3 ovarian): 42 nM
TGI (OVCAR-3 ovarian): 175 nM
GI50 (A498 renal): 115 nM
TGI (A498 renal): 918 nM
GI50 (SNB-19 CNS): 591 nM
TGI (SNB-19 CNS): 1980 nM
GI50 (SF-268 CNS): 20.3 nM
TGI (SF-268 CNS): 95.8 nM
GI50 (OVCAR-8 ovarian): 14.4 nM
TGI (OVCAR-8 ovarian): 1120 nM
GI50 (M14 melanoma): 261 nM
TGI (M14 melanoma): 1220 nM
GI50 (SK-MEL-2 melanoma): 543 nM
TGI (SK-MEL-2 melanoma): 1980 nM
